BindingDB's records for doi:10.1016/j.bmcl.2006.01.057 (Glaxosmithkline, 2006)
pIC50: −log10 of the molar value.

target: Glycogen synthase kinase-3 beta (Homo sapiens, UniProt P49841); assay: Kinase Inhibition SPA Assay; details: pH 7.2; 22 °C
Experimental: The biochemical activity of compounds was determined by incubation with specific enzyme and substrate in the presence 2.5 uM ATP/ [gamma-33P] ATP. After incubation, the reaction was stopped and the phosphorylated substrate was separated from nonincorporated radioactive ATP using Streptavidin-coated SPA beads (Amersham Pharmacia), counted using TopCount (Packard) to measure substrate-incorporated phosphate.

Chain of Glycogen synthase kinase-3 beta (P49841 whole entry): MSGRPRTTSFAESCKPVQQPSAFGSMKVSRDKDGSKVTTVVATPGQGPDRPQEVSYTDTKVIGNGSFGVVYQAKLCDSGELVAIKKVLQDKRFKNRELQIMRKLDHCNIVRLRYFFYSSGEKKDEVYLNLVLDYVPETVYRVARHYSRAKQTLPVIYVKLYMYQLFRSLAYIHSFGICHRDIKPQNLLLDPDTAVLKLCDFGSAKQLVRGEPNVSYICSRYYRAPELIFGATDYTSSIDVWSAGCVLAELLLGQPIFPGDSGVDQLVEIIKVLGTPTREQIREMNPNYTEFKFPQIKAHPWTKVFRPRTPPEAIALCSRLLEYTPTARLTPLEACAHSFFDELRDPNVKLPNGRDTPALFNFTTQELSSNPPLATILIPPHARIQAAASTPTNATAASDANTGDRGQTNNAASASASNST

Q: `COc1cccc(-n2ncc3c(N=NCc4ccncc4)ncnc32)c1` [4-[(1E)-{2-[1-(3-methoxyphenyl)-1H-pyrazolo[3,4-d]pyrimidin-4-yl]hydrazin-1-ylidene}methyl]pyridine] was tested. Which pIC50 did it give?
A: Its pIC50 is 8.20.

Q: How did the pIC50 turn out when `COc1cccc(-n2ccc3c(N=NCc4ccncc4)ncnc32)c1` [4-[(1E)-{2-[7-(3-methoxyphenyl)-7H-pyrrolo[2,3-d]pyrimidin-4-yl]hydrazin-1-ylidene}methyl]pyridine] was run?
A: Its pIC50 is 7.50.

Q: With `COc1cccc(-c2cn(C)c3c(N=NCc4ccncc4)ncnc23)c1` [4-[(1E)-{2-[7-(3-methoxyphenyl)-5-methyl-5H-pyrrolo[3,2-d]pyrimidin-4-yl]hydrazin-1-ylidene}methyl]pyridine] as the compound, how does the pIC50 read?
A: Its pIC50 is 6.30.

Q: `COc1cccc(-c2n[nH]c3c(N=NCc4ccncc4)ncnc23)c1` [4-[(1E)-{2-[3-(3-methoxyphenyl)-1H-pyrazolo[4,3-d]pyrimidin-7-yl]hydrazin-1-ylidene}methyl]pyridine] was tested. Which pIC50 did it give?
A: The pIC50 was 8.30.

Q: `COc1cccc(-c2c[nH]c3c(N=NCc4ccncc4)ncnc23)c1` [4-[(1E)-{2-[7-(3-methoxyphenyl)-5H-pyrrolo[3,2-d]pyrimidin-4-yl]hydrazin-1-ylidene}methyl]pyridine] was tested. Which pIC50 did it give?
A: Its pIC50 is 8.30.

Q: How did the pIC50 turn out when `COc1cccc(-n2cnc3c(N=NCc4ccncc4)ncnc32)c1` [9-(3-methoxyphenyl)-6-[(2E)-2-(pyridin-4-ylmethylidene)hydrazin-1-yl]-9H-purine] was run?
A: Its pIC50 is 6.20.
